Experimental findings from patent US20110081348A1, “FUNGAL SIGNALLING AND METABOLIC ENZYMES” (priority 2004, published 2011) are described below.

Molecules are shown by their SMILES.

For this assay, the target named is recombinant truncated ILV34 (Aspergillus fumigatus, UniProt Q4X099). The assay can be described thus: biochemical.
Sequence of recombinant truncated ILV34 (Q4X099 30-606): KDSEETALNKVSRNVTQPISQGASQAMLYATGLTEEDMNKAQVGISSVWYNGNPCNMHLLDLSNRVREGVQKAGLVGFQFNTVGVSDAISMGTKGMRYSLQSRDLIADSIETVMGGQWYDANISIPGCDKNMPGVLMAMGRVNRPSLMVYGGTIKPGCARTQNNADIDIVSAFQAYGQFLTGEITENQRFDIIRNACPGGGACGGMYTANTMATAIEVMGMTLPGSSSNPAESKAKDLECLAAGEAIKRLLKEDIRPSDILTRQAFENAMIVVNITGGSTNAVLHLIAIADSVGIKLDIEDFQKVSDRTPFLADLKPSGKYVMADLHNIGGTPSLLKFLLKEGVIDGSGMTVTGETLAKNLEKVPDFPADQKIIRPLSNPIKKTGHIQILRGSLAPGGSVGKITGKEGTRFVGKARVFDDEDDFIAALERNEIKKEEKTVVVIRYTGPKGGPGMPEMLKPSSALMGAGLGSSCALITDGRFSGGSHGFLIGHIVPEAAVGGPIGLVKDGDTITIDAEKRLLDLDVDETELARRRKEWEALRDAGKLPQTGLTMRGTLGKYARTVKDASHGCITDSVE

Procedure: The assay for ILV34 is based upon the ability of this enzyme to dehydrate dihydroxyacid substrates to a keto acid. […] The appearance of the keto acid product can be monitored directly at 240 nm; alternatively it can be reacted with semicarbazide and sodium acetate and monitored at 250 nm.
Assays were carried out in 96- or 384-well plates. […] Samples were incubated at room temperature and at suitable intervals the reaction was stopped and developed by the addition of 25 p. 1 semicarbazide solution (1.26% w/v semicarbazide in 1.89% w/v sodium acetate solution). The samples were incubated for 15 mins after the final semicarbazide/sodium acetate addition and then read at 250 nm.

With `CC(C)C(O)C(=O)O` (stereo not shown) [2-hydroxy-3-methylbutyric acid], the IC50 was roughly 10 mM.

For orientation: IC50 means the concentration needed to halve the response being measured.
